Measured values reported in patent US20050069887A1, “Dna synthesis promoters dna polymerase-associated factors and utilization thereof” (priority 2001, published 2005).

Assays:
EX-Taq DNA polymerase [1] = test: PCR using EX-Taq with oxalate ion and betaine (Example 2-1); assay type: biochemical; details: 2 mM potassium oxalate, 0.5 M betaine, FIG. 11
Protocol: Oxalate ion and betaine were investigated for their synergistic effectiveness in amplification of a target DNA which cannot be usually amplified by PCR using EX-Taq DNA polymerase (TAKARA). Potassium oxalate was added to the PCR buffer attached to EX-Taq DNA polymerase to attain a final concentration of 2 mM. Also used were 0.2 mM dNTPs, 0.3 μM of a pair of primers consisting of the sequences of ID NOs:14 and 15 respectively, and 1.0 U EX-Taq DNA polymerase. 20 ng of genomic DNA derived from human cell line K562 was used as a template. This reaction mixture was subjected to PCR by using GeneAmp2400 (PE Applied Biosystems) to investigate the influence of varying the concentration of betaine added on the PCR results. The PCR conditions were as follows: 1preliminary reaction of 94° C. for 2 minutes, and then 35 cycles of 94° C. for 15 seconds, 60° C. for 30 seconds and 68° C. for 8.5 minutes.

nPfu DNA polymerase = target: T1, nPfu DNA polymerase (Pyrococcus furiosus, UniProt P61875); test: PCR using nPfu with oxalate ion and betaine (Example 2-2); assay type: biochemical; details: 2 mM potassium oxalate, FIG. 12
T1 construct: α-Type Enzyme (Native Pfu); purchased STRATAGENE
T1 sequence (P61875 1-775): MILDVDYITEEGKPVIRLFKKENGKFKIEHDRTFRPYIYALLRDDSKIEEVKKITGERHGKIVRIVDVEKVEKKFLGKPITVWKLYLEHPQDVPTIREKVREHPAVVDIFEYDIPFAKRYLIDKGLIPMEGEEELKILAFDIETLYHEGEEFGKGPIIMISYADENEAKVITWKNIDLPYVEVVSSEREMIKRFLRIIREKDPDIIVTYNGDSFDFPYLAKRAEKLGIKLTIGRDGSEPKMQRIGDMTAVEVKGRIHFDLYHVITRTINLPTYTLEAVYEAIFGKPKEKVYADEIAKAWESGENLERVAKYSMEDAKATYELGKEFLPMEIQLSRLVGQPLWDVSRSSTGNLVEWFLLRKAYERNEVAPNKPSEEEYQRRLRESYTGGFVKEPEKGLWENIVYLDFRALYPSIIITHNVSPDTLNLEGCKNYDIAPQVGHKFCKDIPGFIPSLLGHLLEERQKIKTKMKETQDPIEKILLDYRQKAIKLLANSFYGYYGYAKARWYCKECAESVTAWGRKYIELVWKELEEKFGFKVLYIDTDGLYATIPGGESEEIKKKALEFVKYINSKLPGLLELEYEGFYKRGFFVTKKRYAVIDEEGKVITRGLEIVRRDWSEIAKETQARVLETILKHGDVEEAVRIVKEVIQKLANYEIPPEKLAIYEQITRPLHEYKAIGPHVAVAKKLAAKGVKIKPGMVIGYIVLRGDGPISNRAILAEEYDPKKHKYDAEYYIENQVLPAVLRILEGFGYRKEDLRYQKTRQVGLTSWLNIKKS
Protocol: Oxalate ion and betaine were investigated for their synergistic effectiveness in amplification of a target DNA which cannot be usually amplified by PCR using nPfu polymerase. Potassium oxalate was added to the PCR buffer (20 mM Tris-HCl(pH: 8.75), 10 mM KCl, 10 mM (NH4)2SO4, 2 mM MgSO41 0.1% Triton X-100, 100 μg/ml BSA) supplied with nPfu (STRATAGENE) to attain a final concentration of 2 mM. Also used were 0.2 mM dNTPs, 0.3 μM of a pair of primers of SEQ ID Nos:16 and 17, and 2.5 U nPfu DNA polymerase. 20 ng of genomic DNA derived from human cell line K562 was used as a template. This reaction mixture was subjected to PCR by using GeneAmp2400 (PE Applied Biosystems) to investigate the influence of varying the concentration of betaine added on the PCR results. The PCR conditions were as follows: 1 preliminary cycle of 94° C. for 2 minutes, and then 35 cycles of 94° C. for 15 seconds, 60° C. for 30 seconds and 68° C. for 8.5 minutes.

KOD-plus DNA polymerase = target: T2, KOD-plus DNA polymerase (Thermococcus kodakarensis, UniProt P77933, DEL407-766/DEL853-1389); assay type: biochemical, Thermococcus kodakaraensis KOD1
T2 construct: purchased Toyobo
Protocol: The effect produced by the addition of oxalate ion to a hot start enzyme was investigated using a hot start enzyme KOD-plus DNA polymerase containing KOD α-type enzyme) and two kinds of KOD antibodies. The PCR buffer supplied with KOD-plus (manufactured by Toyobo), 0.2 mM dNTPs and 0.3 μM of a primer pair of SEQ ID Nos:8 and 9 were used. PCR was performed using 2.5 U KOD-plus DNA polymerase and 20 ng of Genomic DNA derived from human cell line K562 as a template to investigate the influence of varying the concentration of oxalate ion added on the PCR results. The PCR conditions were as follows: 1 preliminary reaction of 94° C. for 2 minutes, and then 35 cycles of 94° C. for 15 seconds, 60° C. for 30 seconds and 68° C. for 8.5 minutes. The PCR was performed using GeneAmp2400 (PE Applied Biosystems).

EX-Taq DNA polymerase [2] = test: PCR using EX-Taq DNA polymerase with added salts (Examples 1-1 to 1-3); assay type: biochemical
Protocol: The effect produced by the addition of oxalate ions was investigated in the PCR using EX-Taq DNA polymerase. A PCR buffer supplied with EX-Taq (TAKARA) and 0.3 μM of a pair of primers of SEQ ID Nos:8 and 9 and 0.2 mM dNTPs were used. PCR was performed by using 1.0 U EX-Taq DNA polymerase and 20 ng of genomic DNA derived from human cell line K562 as a template, with the influence on the PCR result caused by varying the concentration of added oxalate ion being investigated. The PCR conditions were as follows: 1 preliminary reaction of 94° C. for 2 minutes, and then 35 cycles of 94° C. for 15 seconds, 60° C. for 30 seconds and 68° C. for 8.5 minutes. This PCR amplification was performed by using GeneAmp2400 (PE Applied Biosystems).
Salts (potassium chloride, potassium acetate, potassium oxalate, sodium oxalate, potassium sulfate) were investigated for their effectiveness in PCR using EX-Taq DNA polymerase under the same conditions as Example 1. Each salts was used in an amount of 4 to 6 mM of ion equivalent

T2 sequence (P77933 other isoform, or with tags, fused parts or gaps DEL407-766/DEL853-1389): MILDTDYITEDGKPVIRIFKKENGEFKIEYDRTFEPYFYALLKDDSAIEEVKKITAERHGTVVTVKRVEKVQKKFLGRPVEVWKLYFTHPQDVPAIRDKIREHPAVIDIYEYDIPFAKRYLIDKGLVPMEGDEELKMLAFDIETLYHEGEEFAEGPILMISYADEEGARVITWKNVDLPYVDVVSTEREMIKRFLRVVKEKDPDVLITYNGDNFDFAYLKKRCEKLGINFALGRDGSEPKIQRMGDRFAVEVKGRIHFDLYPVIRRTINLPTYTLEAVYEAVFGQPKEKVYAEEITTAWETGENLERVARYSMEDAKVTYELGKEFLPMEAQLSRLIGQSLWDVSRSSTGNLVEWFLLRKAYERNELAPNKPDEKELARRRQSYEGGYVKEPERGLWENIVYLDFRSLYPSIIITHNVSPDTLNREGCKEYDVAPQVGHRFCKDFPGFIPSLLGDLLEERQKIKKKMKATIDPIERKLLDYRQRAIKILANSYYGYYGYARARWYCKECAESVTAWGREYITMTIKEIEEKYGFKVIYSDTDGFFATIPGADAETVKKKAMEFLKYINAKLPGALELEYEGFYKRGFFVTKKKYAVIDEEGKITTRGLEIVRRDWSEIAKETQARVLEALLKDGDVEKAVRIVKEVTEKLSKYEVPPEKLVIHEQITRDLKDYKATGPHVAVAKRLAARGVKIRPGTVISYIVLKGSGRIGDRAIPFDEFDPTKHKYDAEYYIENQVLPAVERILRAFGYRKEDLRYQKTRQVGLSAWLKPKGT

Compound: C[N+](C)(C)CC(=O)[O-] [betaine, trimethylglycine]
- amplification of target DNA (EX-Taq DNA polymerase [1]): an increase in amplification amount was observed
- amplification of target DNA (nPfu DNA polymerase): amplification of the target DNA was observed

Compound: O=C([O-])C(=O)[O-].[K+].[K+] [potassium oxalate]
- amount of the target DNA amplified (KOD-plus DNA polymerase; 5 mM of potassium oxalate): a decrease in the amount of the target DNA amplified was found
- optimal concentration of potassium oxalate (KOD-plus DNA polymerase; FIG. 8): about 3 mM
- effect on extra bands and target amplification (KOD-plus DNA polymerase; in the presence of potassium oxalate, FIG. 8): no extra bands were observed and only the target DNA was amplified
- amplification of target DNA (electrophoresis pattern) (EX-Taq DNA polymerase [2]; carboxylate salts, FIG. 3): amplification of the target DNA was observed
- amplification of target DNA (electrophoresis pattern) (EX-Taq DNA polymerase [2]; salt at 4 to 6 mM of ion equivalent, FIG. 2): Amplification was observed
